Measured values taken from paper PMC10970644, “Molecular Pharmacology of Gelsemium Alkaloids on Inhibitory Receptors” (International Journal of Molecular Sciences, 2024).

Experiments:
α1β GlyR = biological target: T1, α1β GlyR (Rattus norvegicus, UniProt P07727+P20781); test: cell-based
T1 construct: The cells were transfected with plasmids encoding the following proteins; expressed in transfected cells; host or cells: HEK293 (ATCC CRL-1573)
Description: The cells were transfected with plasmids encoding the following proteins: (i). rat GlyR α (1, 2, 3) subunits alone or combined with rat β subunits (Uniprot Accession Numbers: Q546L7, P22771, P20236, P20781); and (ii). rat GABAAR α1 combined with rat β2 and γ2 subunits (Uniprot Accession Numbers: P62813, P63138, P18508). The EGFP expression was used as a marker of successful protein expression. The transfection was performed using Lipofectamine 2000 (Invitrogen, ThermoFisher, Carlsbad, CA, USA) using the fabricant protocol. The plasmids used to express GlyRs and GABAARs have been previously described. To track the successful expression of GlyR β subunits and the GABAA γ2 or β2 subunit, these proteins were subcloned in the pIRES2-EGFP vector. The transfection ratio to obtain β-containing GlyRs was 1:5 of α:β, while the expression of γ2-containing GABAA receptors was 1:2:5 of α:β:γ2 [14, 15]. Chimeric GlyRs were described in a previous report. Site directed mutagenesis was performed by Charm Gene Science Mutagenex LLC. (Cumming, GA, USA). All the constructs were checked by full-length sequencing (SNPSaurus, Eugene, OR, USA).
In brief, patch electrodes (3–4 MΩ) were pulled from borosilicate glasses in a PC-100 puller (Narishige, Tokyo, Japan); then, they were filled with an intracellular solution, which contained (in mM) 120 CsCl, 8 EGTA, 10 HEPES (pH 7.4), 4 MgCl2, 0.5 GTP, and 2 ATP. The extracellular solution contained (in mM) 140 NaCl, 5.4 KCl, 2.0 CaCl2, 1.0 MgCl2, 10 HEPES (pH 7.4), and 10 glucose. Whole-cell patch-clamp recordings were performed at −60 mV with an Axoclamp 200B (Molecular Devices, Sunnyvale, CA, USA) or with HEKA EPC-10 (HEKA Elektronik GmbH, Reutlingen, Germany) amplifiers. […] Brief (3–5 s) pulses of agonist together with alkaloids were applied to cells. Stock solutions of the alkaloids were prepared in high purity distilled water. Aliquots of these stock solutions were diluted in reservoirs containing extracellular solution. […] The concentration–response curve parameters for the alkaloid inhibition (IC50, nH, and the maximal current inhibition) were obtained from the fitted curve of normalized concentration–response data points to the equation Iagonist = Imax (agonist)nH/((agonist)nH + (EC50)nH). The IC50 curves are best-fit mean ± SE from pooled data. […] The inhibition constant (Ki) was calculated using the Cheng–Prusoff equation (Ki = IC50/((2 + ([Agonist]/EC50)^nH)^1/nH − 1). The concentration of agonist corresponds to the sub-saturating agonist concentration used to obtain the IC50 for each alkaloid on a given GlyR subtype.

α1 GlyR = biological target: T2, α1 GlyR (Rattus norvegicus, UniProt P07727); conditions: homomeric α1GlyRs; cited from earlier work
T2 construct: expressed in transfected cells; host or cells: HEK293 (ATCC CRL-1573)
T2 sequence (P07727 29-457): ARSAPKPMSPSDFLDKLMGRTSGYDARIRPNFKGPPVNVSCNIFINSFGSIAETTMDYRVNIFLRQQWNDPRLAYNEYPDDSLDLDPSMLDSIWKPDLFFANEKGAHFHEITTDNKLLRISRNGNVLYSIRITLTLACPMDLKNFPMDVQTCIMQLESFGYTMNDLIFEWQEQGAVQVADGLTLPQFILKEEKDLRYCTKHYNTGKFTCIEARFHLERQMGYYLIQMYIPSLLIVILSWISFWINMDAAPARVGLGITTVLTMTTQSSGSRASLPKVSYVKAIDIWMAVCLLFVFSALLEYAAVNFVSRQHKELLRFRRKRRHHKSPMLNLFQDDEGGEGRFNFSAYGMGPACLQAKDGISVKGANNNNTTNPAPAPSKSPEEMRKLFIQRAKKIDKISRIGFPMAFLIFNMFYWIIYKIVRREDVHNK

Spinal GlyRs = conditions: cited from earlier work
α2 GlyR = biological target: T3, α2 GlyR (Rattus norvegicus, UniProt P22771); conditions: cited from earlier work
T3 construct: The cells were transfected with plasmids encoding the following proteins; expressed in transfected cells; host or cells: HEK293 (ATCC CRL-1573)
T3 sequence (P22771 28-452): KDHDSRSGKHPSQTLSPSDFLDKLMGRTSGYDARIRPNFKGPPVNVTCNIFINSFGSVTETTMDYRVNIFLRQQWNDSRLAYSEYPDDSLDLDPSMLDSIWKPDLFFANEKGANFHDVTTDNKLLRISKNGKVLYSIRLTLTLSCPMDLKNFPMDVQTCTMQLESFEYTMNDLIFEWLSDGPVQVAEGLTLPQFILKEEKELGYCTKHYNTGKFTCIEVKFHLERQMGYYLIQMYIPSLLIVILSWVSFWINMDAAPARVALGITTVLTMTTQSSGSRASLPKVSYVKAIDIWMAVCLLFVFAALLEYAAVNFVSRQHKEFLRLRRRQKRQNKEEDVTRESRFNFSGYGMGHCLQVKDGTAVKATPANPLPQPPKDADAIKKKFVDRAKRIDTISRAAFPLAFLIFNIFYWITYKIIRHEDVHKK

[1] = humans; cited from earlier work
α3 GlyR = biological target: T4, α3 GlyR (Rattus norvegicus, UniProt P24524); conditions: cited from earlier work
T4 construct: expressed in transfected cells; host or cells: HEK293 (ATCC CRL-1573)
T4 sequence (P24524 34-464): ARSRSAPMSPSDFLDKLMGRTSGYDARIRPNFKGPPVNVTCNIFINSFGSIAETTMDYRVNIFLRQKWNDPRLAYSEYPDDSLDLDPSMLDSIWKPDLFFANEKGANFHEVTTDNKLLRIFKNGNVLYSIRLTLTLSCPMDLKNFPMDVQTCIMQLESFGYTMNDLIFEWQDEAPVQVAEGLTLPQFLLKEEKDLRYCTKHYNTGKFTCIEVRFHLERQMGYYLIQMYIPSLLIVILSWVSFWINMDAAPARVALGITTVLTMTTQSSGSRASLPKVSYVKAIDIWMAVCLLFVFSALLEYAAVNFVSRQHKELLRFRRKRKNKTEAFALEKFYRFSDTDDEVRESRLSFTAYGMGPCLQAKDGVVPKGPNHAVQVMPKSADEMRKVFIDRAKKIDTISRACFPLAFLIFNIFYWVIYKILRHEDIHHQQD

T1 sequence (P20781 23-496, one chain of several): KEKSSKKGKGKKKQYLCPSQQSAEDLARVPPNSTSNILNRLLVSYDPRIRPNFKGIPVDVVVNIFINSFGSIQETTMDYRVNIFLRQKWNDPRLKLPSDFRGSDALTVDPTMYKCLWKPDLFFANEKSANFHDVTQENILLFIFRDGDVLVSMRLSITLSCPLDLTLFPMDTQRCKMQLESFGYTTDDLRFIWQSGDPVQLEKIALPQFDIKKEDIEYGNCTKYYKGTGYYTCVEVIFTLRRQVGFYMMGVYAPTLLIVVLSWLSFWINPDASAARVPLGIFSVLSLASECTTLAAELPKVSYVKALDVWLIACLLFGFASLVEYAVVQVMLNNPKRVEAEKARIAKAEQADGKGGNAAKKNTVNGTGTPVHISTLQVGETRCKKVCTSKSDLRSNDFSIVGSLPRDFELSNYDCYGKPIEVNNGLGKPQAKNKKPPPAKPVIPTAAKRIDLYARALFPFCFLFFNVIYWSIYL

SMILES	IC50 (α1β GlyR) [µM]	nH (α1β GlyR; Hill coefficient of inhibition curve)	Maximal Modulation (α1β GlyR; percentage change of glycine-evoked current) [%]	modulation of currents (in words) (α1 GlyR)	IC50 (Spinal GlyRs) [µM]	modulation of currents (in words) (α2 GlyR)	lethal plasma concentrations [1] [µg/mL]	modulation of currents (in words) (α3 GlyR)
C=C[C@@]12CN(C)[C@H]3C[C@]14C(=Nc1ccccc14)[C@H]1C[C@@H]2[C@@H]3CO1 [koumine]	32.5 ± 13.2	0.9 ± 0.5	−90.8 ± 2.3	–	–	–	–	–
C=C[C@]12CN(C)[C@@H]3[C@H]4CO[C@H](C[C@H]41)[C@]1(C(=O)Nc4ccccc41)[C@@H]32 [gelsemine]	–	–	–	bell-shape modulation	~42	concentration-dependent inhibition	13 to 30	concentration-dependent inhibition
